Results published in the kinase profiling compilation of Christmann-Franck et al. (2016).

Assays:
Experiment in all cases: radiometric filter-binding kinase assay, Kinase HotSpot
Conditions in all cases: compound 0.5 µM; ATP 10 µM
WNK2 (human) = WNK2 (human) (UniProt Q9Y3S1)
NTRK3 (human) = NTRK3 (human) (UniProt Q16288)
TYRO3 (human) = TYRO3 (human) (UniProt Q06418)
CDK1 CCNB1 (human) = CDK1 CCNB1 (human) (UniProt P06493+P14635)
CDK6 CCND3 (human) = CDK6 CCND3 (human) (UniProt P30281+Q00534)
NTRK2 (human) = NTRK2 (human) (UniProt Q16620)
Sequence of NTRK2 (human) (Q16620 whole entry, looked up): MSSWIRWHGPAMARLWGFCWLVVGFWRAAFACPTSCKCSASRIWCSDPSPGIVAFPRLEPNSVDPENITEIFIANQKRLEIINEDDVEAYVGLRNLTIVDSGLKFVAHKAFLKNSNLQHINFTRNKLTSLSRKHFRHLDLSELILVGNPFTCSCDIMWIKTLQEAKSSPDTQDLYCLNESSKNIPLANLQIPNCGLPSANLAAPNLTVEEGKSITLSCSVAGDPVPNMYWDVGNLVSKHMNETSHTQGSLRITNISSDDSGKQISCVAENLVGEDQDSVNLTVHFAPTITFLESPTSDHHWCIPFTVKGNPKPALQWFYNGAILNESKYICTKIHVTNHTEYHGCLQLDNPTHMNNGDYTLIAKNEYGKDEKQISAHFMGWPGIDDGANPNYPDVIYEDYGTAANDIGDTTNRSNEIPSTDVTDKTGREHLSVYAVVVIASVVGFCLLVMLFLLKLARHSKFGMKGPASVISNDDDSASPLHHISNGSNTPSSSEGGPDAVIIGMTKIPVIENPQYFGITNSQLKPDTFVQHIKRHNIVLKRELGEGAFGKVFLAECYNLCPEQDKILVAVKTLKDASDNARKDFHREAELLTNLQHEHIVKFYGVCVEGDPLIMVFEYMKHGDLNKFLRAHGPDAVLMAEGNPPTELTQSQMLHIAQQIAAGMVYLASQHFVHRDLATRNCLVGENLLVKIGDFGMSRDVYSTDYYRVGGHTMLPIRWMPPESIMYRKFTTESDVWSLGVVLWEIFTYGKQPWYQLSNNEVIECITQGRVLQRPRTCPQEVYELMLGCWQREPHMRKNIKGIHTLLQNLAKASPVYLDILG

EPHA5 (human) = EPHA5 (human) (UniProt P54756)
FER (human) = FER (human) (UniProt P16591)
PAK6 (human) = PAK6 (human) (UniProt Q9NQU5)
PRKCB2 (human) = PRKCB2 (human) (UniProt P05771)
AKT3 (human) = AKT3 (human) (UniProt Q9Y243)
PRKCZ (human) = PRKCZ (human) (UniProt Q05513)
CSNK1G2 (human) = CSNK1G2 (human) (UniProt P78368)
Sequence of CSNK1G2 (human) (P78368 whole entry, looked up): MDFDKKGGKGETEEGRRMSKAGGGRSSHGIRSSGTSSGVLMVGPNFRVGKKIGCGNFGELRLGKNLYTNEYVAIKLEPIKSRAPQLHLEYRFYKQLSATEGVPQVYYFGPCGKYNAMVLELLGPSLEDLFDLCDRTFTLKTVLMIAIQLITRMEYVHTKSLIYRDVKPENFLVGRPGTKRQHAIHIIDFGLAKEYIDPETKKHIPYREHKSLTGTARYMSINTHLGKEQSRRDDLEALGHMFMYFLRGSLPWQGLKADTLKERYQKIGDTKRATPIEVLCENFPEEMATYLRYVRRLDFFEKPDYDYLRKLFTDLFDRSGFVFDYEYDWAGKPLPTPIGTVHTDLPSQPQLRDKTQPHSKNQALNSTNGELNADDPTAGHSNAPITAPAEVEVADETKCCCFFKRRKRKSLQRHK

IKBKE (human) = IKBKE (human) (UniProt Q14164)
MAPK10 (human) = MAPK10 (human) (UniProt P53779)
CSF1R (human) = CSF1R (human) (UniProt P07333)
CAMK1D (human) = CAMK1D (human) (UniProt Q8IU85)
MAPK13 (human) = MAPK13 (human) (UniProt O15264)
HIPK4 (human) = HIPK4 (human) (UniProt Q8NE63)
PTK2B (human) = PTK2B (human) (UniProt Q14289)
GRK5 (human) = GRK5 (human) (UniProt P34947)
ALK (human) = ALK (human) (UniProt Q9UM73)
PRKD1 (human) = PRKD1 (human) (UniProt Q15139)
Sequence of PRKD1 (human) (Q15139 whole entry, looked up): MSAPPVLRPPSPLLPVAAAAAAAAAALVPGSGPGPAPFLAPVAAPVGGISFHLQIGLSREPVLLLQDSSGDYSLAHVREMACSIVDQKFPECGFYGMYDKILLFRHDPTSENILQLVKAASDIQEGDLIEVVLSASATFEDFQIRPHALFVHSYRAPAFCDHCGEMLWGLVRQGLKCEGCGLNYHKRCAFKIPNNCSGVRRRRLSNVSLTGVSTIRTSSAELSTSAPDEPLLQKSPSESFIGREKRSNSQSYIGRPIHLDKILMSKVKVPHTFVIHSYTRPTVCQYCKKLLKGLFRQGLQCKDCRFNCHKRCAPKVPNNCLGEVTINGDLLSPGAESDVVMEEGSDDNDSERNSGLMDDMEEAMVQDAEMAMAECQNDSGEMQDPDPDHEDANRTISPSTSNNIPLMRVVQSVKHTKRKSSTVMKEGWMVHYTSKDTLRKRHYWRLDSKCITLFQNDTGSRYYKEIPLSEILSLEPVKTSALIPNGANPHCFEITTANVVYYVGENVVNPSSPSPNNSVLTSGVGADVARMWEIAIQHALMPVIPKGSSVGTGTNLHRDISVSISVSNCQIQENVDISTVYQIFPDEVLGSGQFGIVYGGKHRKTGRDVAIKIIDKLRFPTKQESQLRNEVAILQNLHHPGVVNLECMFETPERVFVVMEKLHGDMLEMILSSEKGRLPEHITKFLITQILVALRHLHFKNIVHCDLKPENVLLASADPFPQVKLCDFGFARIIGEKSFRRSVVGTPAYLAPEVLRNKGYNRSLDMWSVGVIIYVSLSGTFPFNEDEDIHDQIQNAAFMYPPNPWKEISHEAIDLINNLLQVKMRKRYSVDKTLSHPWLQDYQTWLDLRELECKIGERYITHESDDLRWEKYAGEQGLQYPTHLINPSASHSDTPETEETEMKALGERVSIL

ROCK2 (human) = ROCK2 (human) (UniProt O75116)
Sequence of ROCK2 (human) (O75116 whole entry, looked up): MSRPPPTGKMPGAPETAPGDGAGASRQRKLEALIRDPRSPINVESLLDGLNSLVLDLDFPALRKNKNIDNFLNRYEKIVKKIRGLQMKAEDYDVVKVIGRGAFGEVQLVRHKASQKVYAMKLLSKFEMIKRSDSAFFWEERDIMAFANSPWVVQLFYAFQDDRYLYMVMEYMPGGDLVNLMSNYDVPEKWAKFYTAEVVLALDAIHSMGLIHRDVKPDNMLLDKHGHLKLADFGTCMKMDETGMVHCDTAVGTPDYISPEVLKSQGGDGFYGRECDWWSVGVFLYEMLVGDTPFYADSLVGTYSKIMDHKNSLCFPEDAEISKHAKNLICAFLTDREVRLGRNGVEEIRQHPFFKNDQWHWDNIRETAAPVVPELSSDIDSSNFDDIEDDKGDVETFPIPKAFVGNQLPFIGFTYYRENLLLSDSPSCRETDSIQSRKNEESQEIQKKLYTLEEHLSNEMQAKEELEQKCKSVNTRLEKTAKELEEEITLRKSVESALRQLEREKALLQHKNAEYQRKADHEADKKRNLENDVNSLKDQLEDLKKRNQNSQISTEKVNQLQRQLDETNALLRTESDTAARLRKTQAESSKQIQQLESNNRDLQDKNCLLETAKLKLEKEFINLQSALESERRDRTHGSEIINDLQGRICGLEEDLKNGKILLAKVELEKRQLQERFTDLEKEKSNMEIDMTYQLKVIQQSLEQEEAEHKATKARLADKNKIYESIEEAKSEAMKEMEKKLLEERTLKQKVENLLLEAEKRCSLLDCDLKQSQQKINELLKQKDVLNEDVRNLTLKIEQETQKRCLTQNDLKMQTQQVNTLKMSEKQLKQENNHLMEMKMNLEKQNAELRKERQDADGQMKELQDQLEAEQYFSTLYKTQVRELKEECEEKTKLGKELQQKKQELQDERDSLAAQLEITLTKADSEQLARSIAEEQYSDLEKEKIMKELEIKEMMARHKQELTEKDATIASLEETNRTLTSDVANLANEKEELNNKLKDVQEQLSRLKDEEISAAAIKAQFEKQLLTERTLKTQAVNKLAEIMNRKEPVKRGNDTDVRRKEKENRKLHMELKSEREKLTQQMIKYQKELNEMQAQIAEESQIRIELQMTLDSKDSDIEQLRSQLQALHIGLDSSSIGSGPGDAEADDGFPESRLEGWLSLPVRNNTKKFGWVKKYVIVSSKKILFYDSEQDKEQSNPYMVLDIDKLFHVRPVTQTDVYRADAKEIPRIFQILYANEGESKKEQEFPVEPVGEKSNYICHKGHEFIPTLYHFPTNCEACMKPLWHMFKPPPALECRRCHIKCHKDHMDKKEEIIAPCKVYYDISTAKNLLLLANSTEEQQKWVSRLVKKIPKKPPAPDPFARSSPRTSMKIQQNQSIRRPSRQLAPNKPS

CLK2 (human) = CLK2 (human) (UniProt P49760)
FGR (human) = FGR (human) (UniProt P09769)
RPS6KA3 KD1 KD2 (human) = RPS6KA3 KD1 KD2 (human) (UniProt P51812)
TTK (human) = TTK (human) (UniProt P33981)
PLK2 (human) = PLK2 (human) (UniProt Q9NYY3)
EPHA2 (human) = EPHA2 (human) (UniProt P29317)
PRKCB1 (human) = PRKCB1 (human) (UniProt P05771)
ADRBK2 (human) = ADRBK2 (human) (UniProt P35626)
PTK6 (human) = PTK6 (human) (UniProt Q13882)
NUAK1 (human) = NUAK1 (human) (UniProt O60285)
MAPK8 (human) = MAPK8 (human) (UniProt P45983)
MAPK14 (human) = MAPK14 (human) (UniProt Q16539)
Sequence of MAPK14 (human) (Q16539 whole entry, looked up): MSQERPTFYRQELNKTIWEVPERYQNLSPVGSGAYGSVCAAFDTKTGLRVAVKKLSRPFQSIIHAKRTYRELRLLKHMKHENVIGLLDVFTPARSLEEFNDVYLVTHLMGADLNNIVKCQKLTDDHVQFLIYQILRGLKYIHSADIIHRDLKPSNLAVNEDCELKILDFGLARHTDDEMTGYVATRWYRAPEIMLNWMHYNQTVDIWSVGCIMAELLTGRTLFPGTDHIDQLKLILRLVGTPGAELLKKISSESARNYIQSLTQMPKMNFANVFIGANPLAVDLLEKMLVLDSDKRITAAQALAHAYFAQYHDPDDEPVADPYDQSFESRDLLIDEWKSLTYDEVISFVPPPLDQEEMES

CHEK2 (human) = CHEK2 (human) (UniProt O96017)
CDK1 CCNA2 (human) = CDK1 CCNA2 (human) (UniProt P06493+P20248)
MATK (human) = MATK (human) (UniProt P42679)
Sequence of MATK (human) (P42679 whole entry, looked up): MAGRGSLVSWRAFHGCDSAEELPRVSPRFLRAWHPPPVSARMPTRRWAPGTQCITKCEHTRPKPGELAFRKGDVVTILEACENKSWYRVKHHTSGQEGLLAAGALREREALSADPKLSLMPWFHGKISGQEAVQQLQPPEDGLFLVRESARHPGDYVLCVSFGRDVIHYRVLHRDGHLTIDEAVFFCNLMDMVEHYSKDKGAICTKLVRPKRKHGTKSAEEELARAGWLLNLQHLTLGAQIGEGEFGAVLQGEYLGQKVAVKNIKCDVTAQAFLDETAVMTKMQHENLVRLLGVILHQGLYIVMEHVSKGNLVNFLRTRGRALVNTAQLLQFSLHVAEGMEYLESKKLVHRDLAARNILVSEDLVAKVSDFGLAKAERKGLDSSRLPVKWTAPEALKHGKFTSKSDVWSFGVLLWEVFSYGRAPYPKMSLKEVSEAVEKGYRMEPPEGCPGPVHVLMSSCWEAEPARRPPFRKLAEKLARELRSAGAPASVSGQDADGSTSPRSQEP

MAP3K14 (human) = MAP3K14 (human) (UniProt Q99558)
NUAK2 (human) = NUAK2 (human) (UniProt Q9H093)
STK25 (human) = STK25 (human) (UniProt O00506)

Sequence of CDK6 CCND3 (human) (P30281 whole entry, looked up): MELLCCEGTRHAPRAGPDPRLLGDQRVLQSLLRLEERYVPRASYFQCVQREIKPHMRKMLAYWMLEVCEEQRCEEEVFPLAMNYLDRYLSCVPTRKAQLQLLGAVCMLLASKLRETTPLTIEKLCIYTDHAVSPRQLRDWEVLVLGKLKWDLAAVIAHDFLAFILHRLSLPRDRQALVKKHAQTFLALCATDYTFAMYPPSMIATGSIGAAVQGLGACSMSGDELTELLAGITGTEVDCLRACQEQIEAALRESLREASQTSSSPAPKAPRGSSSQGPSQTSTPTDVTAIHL
Sequence of CDK6 CCND3 (human) (Q00534 whole entry, looked up): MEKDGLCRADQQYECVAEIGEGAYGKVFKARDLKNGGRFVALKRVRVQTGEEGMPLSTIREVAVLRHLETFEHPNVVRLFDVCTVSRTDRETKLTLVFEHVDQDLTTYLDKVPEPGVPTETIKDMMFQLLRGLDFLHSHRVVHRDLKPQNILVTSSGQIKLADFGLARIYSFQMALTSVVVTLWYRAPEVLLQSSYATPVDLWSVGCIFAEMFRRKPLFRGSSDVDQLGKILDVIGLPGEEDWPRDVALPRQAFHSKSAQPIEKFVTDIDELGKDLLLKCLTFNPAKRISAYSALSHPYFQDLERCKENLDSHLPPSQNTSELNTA

Compound: O=C1Nc2ccccc2/C1=C1/Nc2ccccc2/C1=N\OCCC(O)CO (stereo not drawn)
- residual activity (WNK2 (human)): 85.4%
- residual activity (NTRK3 (human)): 1.01%
- residual activity (TYRO3 (human)): 71.5%
- residual activity (CDK1 CCNB1 (human)): 33.4%
- residual activity (CDK6 CCND3 (human)): 10.2%
- residual activity (NTRK2 (human)): 1.62%
- residual activity (EPHA5 (human)): 68%
- residual activity (FER (human)): 28.8%
- residual activity (PAK6 (human)): 93.5%
- residual activity (PRKCB2 (human)): 88%
- residual activity (AKT3 (human)): 92.9%
- residual activity (PRKCZ (human)): 98.5%
- residual activity (CSNK1G2 (human)): 85.2%
- residual activity (IKBKE (human)): 45.7%
- residual activity (MAPK10 (human)): 103%
- residual activity (CSF1R (human)): 21.1%
- residual activity (CAMK1D (human)): 80.3%
- residual activity (MAPK13 (human)): 94.8%
- residual activity (HIPK4 (human)): 108%
- residual activity (PTK2B (human)): 30.5%
- residual activity (GRK5 (human)): 84.6%
- residual activity (ALK (human)): 38.1%
- residual activity (PRKD1 (human)): 72.7%
- residual activity (ROCK2 (human)): 91%
- residual activity (CLK2 (human)): 92%
- residual activity (FGR (human)): 11.6%
- residual activity (RPS6KA3 KD1 KD2 (human)): 18.3%
- residual activity (TTK (human)): 46.1%
- residual activity (PLK2 (human)): 105%
- residual activity (EPHA2 (human)): 65.3%
- residual activity (PRKCB1 (human)): 93.6%
- residual activity (ADRBK2 (human)): 100%
- residual activity (PTK6 (human)): 73.3%
- residual activity (NUAK1 (human)): 2.81%
- residual activity (MAPK8 (human)): 101%
- residual activity (MAPK14 (human)): 101%
- residual activity (CHEK2 (human)): 27%
- residual activity (CDK1 CCNA2 (human)): 56.7%
- residual activity (MATK (human)): 101%
- residual activity (MAP3K14 (human)): 89%
- residual activity (NUAK2 (human)): 55.1%
- residual activity (STK25 (human)): 74%

Compound: Nc1nnc2[nH]c3ccccc3nc1-2
- residual activity (WNK2 (human)): 95.9%
- residual activity (NTRK3 (human)): 92.1%
- residual activity (TYRO3 (human)): 101%
- residual activity (CDK1 CCNB1 (human)): 79.6%
- residual activity (CDK6 CCND3 (human)): 105%
- residual activity (NTRK2 (human)): 96.4%
- residual activity (EPHA5 (human)): 90.3%
- residual activity (FER (human)): 94.4%
- residual activity (PAK6 (human)): 96.3%
- residual activity (PRKCB2 (human)): 88.5%
- residual activity (AKT3 (human)): 95.3%
- residual activity (PRKCZ (human)): 106%
- residual activity (CSNK1G2 (human)): 93.8%
- residual activity (IKBKE (human)): 99.4%
- residual activity (MAPK10 (human)): 92.1%
- residual activity (CSF1R (human)): 95.3%
- residual activity (CAMK1D (human)): 98.3%
- residual activity (MAPK13 (human)): 101%
- residual activity (HIPK4 (human)): 95.8%
- residual activity (PTK2B (human)): 92%
- residual activity (GRK5 (human)): 101%
- residual activity (ALK (human)): 96.7%
- residual activity (PRKD1 (human)): 94.9%
- residual activity (ROCK2 (human)): 93.3%
- residual activity (CLK2 (human)): 96.1%
- residual activity (FGR (human)): 96.3%
- residual activity (RPS6KA3 KD1 KD2 (human)): 88%
- residual activity (TTK (human)): 102%
- residual activity (PLK2 (human)): 101%
- residual activity (EPHA2 (human)): 98.5%
- residual activity (PRKCB1 (human)): 103%
- residual activity (ADRBK2 (human)): 92.4%
- residual activity (PTK6 (human)): 84.1%
- residual activity (NUAK1 (human)): 86.3%
- residual activity (MAPK8 (human)): 89.6%
- residual activity (MAPK14 (human)): 96.6%
- residual activity (CHEK2 (human)): 94.4%
- residual activity (CDK1 CCNA2 (human)): 95.3%
- residual activity (MATK (human)): 91.9%
- residual activity (MAP3K14 (human)): 99.2%
- residual activity (NUAK2 (human)): 96.3%
- residual activity (STK25 (human)): 99.9%

Compound: CC(=O)O/N=C1\C(=C2\C(=O)Nc3cc(Br)ccc32)Nc2ccccc21
- residual activity (WNK2 (human)): 98.6%
- residual activity (NTRK3 (human)): 15.1%
- residual activity (TYRO3 (human)): 69.8%
- residual activity (CDK1 CCNB1 (human)): 79.3%
- residual activity (CDK6 CCND3 (human)): 40.9%
- residual activity (NTRK2 (human)): 38.4%
- residual activity (EPHA5 (human)): 102%
- residual activity (FER (human)): 86.4%
- residual activity (PAK6 (human)): 74.8%
- residual activity (PRKCB2 (human)): 101%
- residual activity (AKT3 (human)): 95.1%
- residual activity (PRKCZ (human)): 92.2%
- residual activity (CSNK1G2 (human)): 89.7%
- residual activity (IKBKE (human)): 81.4%
- residual activity (MAPK10 (human)): 83%
- residual activity (CSF1R (human)): 84%
- residual activity (CAMK1D (human)): 79.1%
- residual activity (MAPK13 (human)): 91.5%
- residual activity (HIPK4 (human)): 95.5%
- residual activity (PTK2B (human)): 85.9%
- residual activity (GRK5 (human)): 104%
- residual activity (ALK (human)): 86.7%
- residual activity (PRKD1 (human)): 82.1%
- residual activity (ROCK2 (human)): 91.7%
- residual activity (CLK2 (human)): 96.8%
- residual activity (FGR (human)): 14.8%
- residual activity (RPS6KA3 KD1 KD2 (human)): 91.9%
- residual activity (TTK (human)): 93.9%
- residual activity (PLK2 (human)): 100%
- residual activity (EPHA2 (human)): 95.8%
- residual activity (PRKCB1 (human)): 105%
- residual activity (ADRBK2 (human)): 95.7%
- residual activity (PTK6 (human)): 91.2%
- residual activity (NUAK1 (human)): 49.4%
- residual activity (MAPK8 (human)): 88.9%
- residual activity (MAPK14 (human)): 99.2%
- residual activity (CHEK2 (human)): 75.8%
- residual activity (CDK1 CCNA2 (human)): 77.5%
- residual activity (MATK (human)): 93%
- residual activity (MAP3K14 (human)): 75.7%
- residual activity (NUAK2 (human)): 85.2%
- residual activity (STK25 (human)): 80.9%

Compound: Cn1cnc2cc3c(Nc4cccc(Br)c4)ncnc3cc21
- residual activity (WNK2 (human)): 89.7%
- residual activity (NTRK3 (human)): 81.4%
- residual activity (TYRO3 (human)): 94.5%
- residual activity (CDK1 CCNB1 (human)): 97.9%
- residual activity (CDK6 CCND3 (human)): 107%
- residual activity (NTRK2 (human)): 98.9%
- residual activity (EPHA5 (human)): 71.5%
- residual activity (FER (human)): 90.6%
- residual activity (PAK6 (human)): 95%
- residual activity (PRKCB2 (human)): 95.4%
- residual activity (AKT3 (human)): 89.5%
- residual activity (PRKCZ (human)): 102%
- residual activity (CSNK1G2 (human)): 89.2%
- residual activity (IKBKE (human)): 98.7%
- residual activity (MAPK10 (human)): 104%
- residual activity (CSF1R (human)): 94.4%
- residual activity (CAMK1D (human)): 104%
- residual activity (MAPK13 (human)): 101%
- residual activity (HIPK4 (human)): 88.6%
- residual activity (PTK2B (human)): 92.7%
- residual activity (GRK5 (human)): 109%
- residual activity (ALK (human)): 92.4%
- residual activity (PRKD1 (human)): 99.4%
- residual activity (ROCK2 (human)): 88.5%
- residual activity (CLK2 (human)): 93.9%
- residual activity (FGR (human)): 55.8%
- residual activity (RPS6KA3 KD1 KD2 (human)): 105%
- residual activity (TTK (human)): 95.7%
- residual activity (PLK2 (human)): 101%
- residual activity (EPHA2 (human)): 81.8%
- residual activity (PRKCB1 (human)): 100%
- residual activity (ADRBK2 (human)): 89.9%
- residual activity (PTK6 (human)): 54%
- residual activity (NUAK1 (human)): 90.5%
- residual activity (MAPK8 (human)): 96.9%
- residual activity (MAPK14 (human)): 93.6%
- residual activity (CHEK2 (human)): 101%
- residual activity (CDK1 CCNA2 (human)): 95.8%
- residual activity (MATK (human)): 85.9%
- residual activity (MAP3K14 (human)): 90.6%
- residual activity (NUAK2 (human)): 102%
- residual activity (STK25 (human)): 99%
